Results as given in EPA's ToxRefDB 2.

Key:
mouse [1] = conditions: Carcinogenicity; b6c3f1; Oral; Feed; dose end: 104 week; group: systemic; systemic / in life observation / body weight / body weight
rat [2] = conditions: Sub-acute repeat dose toxicity; fischer; Oral; Feed; dose end: 14 day; group: systemic; systemic / in life observation / clinical signs / feces, discoloration + systemic / in life observation / food consumption / food …
rat [3] = conditions: Subchronic oral toxicity in rodents, fischer, Feed, dose end: 13 week, group: systemic
mouse [4] = conditions: Subchronic oral toxicity in rodents, b6c3f1, Feed, dose end: 13 week, group: systemic
mouse [5] = conditions: Subchronic oral toxicity in rodents, b6c3f1, Feed, dose end: 13 week, group: systemic; remark: listed apart in the source
mouse [6] = conditions: Carcinogenicity, b6c3f1, Oral, Feed, dose end: 105 week, group: systemic
mouse [7] = conditions: Sub-acute repeat dose toxicity; b6c3f1; Oral; Feed; dose end: 14 day; group: systemic; systemic / in life observation / clinical signs / feces, discoloration
mouse [8] = conditions: Combined chronic toxicity/carcinogenicity; b6c3f1; Oral; Feed; dose end: 104 week; group: systemic; systemic / pathology microscopic / blood / lymphoma malignant + systemic / pathology microscopic / ovary / interstitial stromal tumor + …
rat [9] = conditions: Combined chronic toxicity/carcinogenicity; fischer; Oral; Feed; dose end: 104 week; group: systemic; systemic / pathology microscopic / adrenal gland / pheochromocytoma benign + systemic / pathology microscopic / adrenal gland / …
rat [10] = conditions: Subchronic oral toxicity in rodents, fischer, Feed, dose end: 13 week, group: systemic; remark: listed apart in the source
rat [11] = conditions: Carcinogenicity; fischer; Oral; Feed; dose end: 105 week; group: systemic; systemic / in life observation / body weight / body weight + systemic / pathology microscopic / kidney / nephropathy + systemic / pathology …
rat [12] = conditions: Carcinogenicity, Osborne-Mendel, Oral, Gavage/Intubation, dose end: 104 week, group: systemic
rat [13] = conditions: Carcinogenicity; sprague dawley; Oral; Gavage/Intubation; dose end: 105 week; group: systemic; systemic / clinical chemistry / [other] / [other] + systemic / organ weight / liver / relative to body weight + systemic / organ weight / …
rat [14] = conditions: Sub-acute repeat dose toxicity, wistar, Oral, Gavage/Intubation, dose end: 28 day
primate = conditions: Sub-acute repeat dose toxicity; Oral; Gavage/Intubation; dose end: 28 day; group: systemic; systemic / in life observation / clinical signs / defecation (diarrhea) + systemic / in life observation / food consumption / food …
dog = conditions: Sub-acute repeat dose toxicity, beagle, Oral, Gavage/Intubation, dose end: 14 day, group: systemic
[15] = systemic / clinical chemistry / bile acids / bile acids + systemic / in life observation / food consumption / food consumption + systemic / …
[16] = systemic / organ weight / epididymis / nos + systemic / organ weight / liver / absolute + systemic / organ weight / testes / absolute + …
[17] = systemic / organ weight / testes / absolute
[18] = systemic / organ weight / epididymis / absolute + systemic / organ weight / testes / absolute + systemic / organ weight / testes / relative …
[19] = systemic / pathology microscopic / spleen / hematopoietic cell proliferation + systemic / pathology microscopic / testes / degeneration
[20] = systemic / pathology microscopic / spleen / hematopoietic cell proliferation + systemic / pathology microscopic / testes / degeneration + …
[21] = systemic / organ weight / liver / absolute + systemic / organ weight / liver / relative to body weight
[22] = systemic / pathology microscopic / liver / carcinoma + systemic / pathology microscopic / liver / neoplastic nodule + systemic / pathology …
[23] = systemic / pathology microscopic / thyroid gland / adenoma
[24] = group: systemic, systemic / hematology / polychromasia / polychromasia + systemic / in life observation / body weight / body weight + systemic / in life …
[25] = group: systemic, systemic / pathology microscopic / ovary / degeneration
[26] = systemic / in life observation / body weight / body weight + systemic / in life observation / clinical signs / salivation + systemic / in …
[27] = systemic / in life observation / body weight / body weight + systemic / pathology microscopic / kidney / vacuolization cytoplasmic + …

Work on O=C1OC(=O)c2ccccc21 [Phthalic anhydride] yielded an LEL (mouse [1]) of 1800 mg/kg/day, an LOAEL (mouse [1]) of 1800 mg/kg/day and an NEL (mouse [1]) of under 1800 mg/kg/day. For the same compound, the NOAEL (mouse [1]) was under 1800 mg/kg/day.

O=C1OC(c2ccc(O)cc2)(c2ccc(O)cc2)c2ccccc21 [Phenolphthalein] was tested, and the LEL (rat [2]) was 10500 mg/kg/day, the LOAEL (rat [2]) was over 10500 mg/kg/day and the NEL (rat [2]) was 4500 mg/kg/day. For the same compound, the NOAEL (rat [2]) was at least 10500 mg/kg/day, the LEL (rat [3]; systemic / clinical chemistry / bile acids / bile acids) was 383 mg/kg/day and the LOAEL (rat [3]; [15]) was over 3490 mg/kg/day. The NEL (rat [3]; [15]) was 192 mg/kg/day, the NOAEL (rat [3]; [15]) was at least 3490 mg/kg/day and the LOAEL (mouse [4]; [16]) was over 9140 mg/kg/day. The NOAEL (mouse [4]; [16]) was at least 9140 mg/kg/day, the LEL (mouse [4]; [17]) was 509 mg/kg/day and the NEL (mouse [4]; [17]) was under 509 mg/kg/day. It also gave an LOAEL (mouse [5]; [18]) of 2000 mg/kg/day, an NOAEL (mouse [5]; [18]) of 1000 mg/kg/day and an LEL (mouse [5]; [17]) of 500 mg/kg/day. It also gave an NEL (mouse [5]; [17]) of under 500 mg/kg/day, an LOAEL (mouse [6]; [19]) of 300 mg/kg/day and an NOAEL (mouse [6]; [19]) of under 300 mg/kg/day. It also gave an LEL (mouse [6]; [20]) of 300 mg/kg/day, an NEL (mouse [6]; [20]) of under 300 mg/kg/day and an LEL (mouse [7]) of 15000 mg/kg/day. For the same compound, the LOAEL (mouse [7]) was over 15000 mg/kg/day, the NEL (mouse [7]) was 7500 mg/kg/day and the NOAEL (mouse [7]) was at least 15000 mg/kg/day. The LEL (mouse [8]) was 300 mg/kg/day, the LOAEL (mouse [8]) was over 1200 mg/kg/day and the NEL (mouse [8]) was under 300 mg/kg/day. For the same compound, the NOAEL (mouse [8]) was at least 1200 mg/kg/day, the LEL (rat [9]) was 500 mg/kg/day and the LOAEL (rat [9]) was over 2000 mg/kg/day. The NEL (rat [9]) was under 500 mg/kg/day, the NOAEL (rat [9]) was at least 2000 mg/kg/day and the LOAEL (rat [10]; [21]) was over 3500 mg/kg/day. The NEL (rat [10]; [21]) was 400 mg/kg/day, the NOAEL (rat [10]; [21]) was at least 3500 mg/kg/day and the LEL (rat [10]; systemic / organ weight / liver / relative to body weight) was 800 mg/kg/day. The LEL (rat [11]) was 500 mg/kg/day, the LOAEL (rat [11]) was 500 mg/kg/day and the NEL (rat [11]) was under 500 mg/kg/day. It also gave an NOAEL (rat [11]) of under 500 mg/kg/day.

Clc1cc2c(cc1Cl)Oc1cc(Cl)c(Cl)cc1O2 [2,3,7,8-Tetrachlorodibenzo-p-dioxin] was tested, and the LOAEL (rat [12]; [22]) was over 0.0005 mg/kg/day, the NOAEL (rat [12]; [22]) was at least 0.0005 mg/kg/day and the LEL (rat [12]; [23]) was 1e-05 mg/kg/day. It also gave an NEL (rat [12]; [23]) of under 1e-05 mg/kg/day, an LEL (rat [13]) of 3e-06 mg/kg/day and an LOAEL (rat [13]) of over 0.0001 mg/kg/day. For the same compound, the NEL (rat [13]) was under 3e-06 mg/kg/day and the NOAEL (rat [13]) was at least 0.0001 mg/kg/day.

In the case of O=c1[nH]c2ccc(S(=O)CCN3CCC(Cc4ccc(F)cc4)CC3)cc2o1 (stereo not given) [Besonprodil], the LEL (rat [14]; group: maternal, reproductive / reproductive performance / estrous cycle / absent corpora lutea) is reported as 200 mg/kg/day, the LOAEL (rat [14]; [24]) is reported as over 300 mg/kg/day and the NOAEL (rat [14]; [24]) is reported as at least 300 mg/kg/day. It also gave an LEL (rat [14]; [25]) of 25 mg/kg/day, an NEL (rat [14]; [25]) of under 25 mg/kg/day and an LEL (primate) of 25 mg/kg/day. For the same compound, the LOAEL (primate) was over 500 mg/kg/day, the NEL (primate) was under 25 mg/kg/day and the NOAEL (primate) was at least 500 mg/kg/day. The LEL (dog; [26]) was 30 mg/kg/day, the NEL (dog; [26]) was under 30 mg/kg/day and the LOAEL (dog; [27]) was over 300 mg/kg/day. It also gave an NOAEL (dog; [27]) of at least 300 mg/kg/day.
